These results are taken from patent US20230031406A1, “COMPOUNDS AND COMPOSITIONS FOR TREATING CONDITIONS ASSOCIATED WITH NLRP ACTIVITY” (Novartis AG, priority 2018, published 2023).

In general, IC50 refers to the concentration at which inhibition is half-maximal.

In the test the test system is PMA-differentiated THP-1 cells. In words: IL-1β production in PMA-differentiated THP-1 cells stimulated with gramicidin (hTHP-1 assay containing 2% fetal bovine serum; Procedures 1 and 2). It is filed as cell-based, human. The conditions noted are these: 2% fetal bovine serum. In a few lines:
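PMA 20 ng/ml 16-18 h → trypsinise → 50,000 cells/well, RPMI/2% FBS; cpd 1 h (11-pt, 100–0.0017 μM; DMSO 0.37%); gramicidin 5 μM, 2 h; spin; supernatant IL-1β via HTRF.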

Setting [1] is: Table B1, class symbols, read-out: Average IC50 of compounds in hTHP-1 assay: hTHP-1 IC50.
Where [2] appears, read: Homo sapiens, THP-1, Table B2, class symbols, read-out: hTHP-1 IC50.
Setting [3] is: Homo sapiens, THP-1, Table B2, numeric bounds, read-out: hTHP-1 IC50.
Where [4] appears, read: Homo sapiens, THP-1, Table B3, hTHP-1 assay, class symbols, read-out: IC50.

Like-named read-outs stand apart in the source and are kept apart here.

Turning to `CC1CCc2c1nc1c(c2NC(=O)N=S(N)(=O)c2ccc(CN(C)C)cc2)CCC1` (single isomer, unassigned) [Compound 134bb, (R,S) or (R,R)-4-((dimethyl-amino)methyl)-N′-((3-methyl-1,2,3,5,6,7-hexa-hydrodicyclo-penta[b,e]pyridin-8-yl)carbamoyl)benzene-sulfonamidamide], the IC50 under setting [1] is 5 to 30 µM.

Take `Cc1c(C2CC2)nc2c(c1NC(=O)N=S(N)(=O)c1nc(C(C)(C)O)cs1)CCC2` (centres unmarked) [Compound 626, N′-((2-cyclopropyl-3-methyl-6,7-dihydro-5H-cyclopenta[b]pyridin-4-yl)carbamoyl)-4-(2-hydroxypropan-2-yl)thiazole-2-sulfonimidamide]: the 50% inhibitory concentration (IC50) under setting [2] was 0.04 to 0.2 µM.

`CC1(C)CCc2c1nc1c(c2NC(=O)N=S(N)(=O)c2cnn(C(F)F)c2)CCC1` (single isomer, unassigned) [Compound 637b, (S) or (R)-1-(Difluoromethyl)-N′-((3,3-dimethyl-1,2,3,5,6,7-hexahydrodicyclopenta [b,e]pyridin-8-yl)carbamoyl)-1H-pyrazole-4-sulfonimidamide]: the 50% inhibitory concentration (IC50) was 1 to 5 µM under setting [2] and more than 30 µM under setting [3].

With `Cc1c(CC(F)(F)F)nc2c(c1NC(=O)N=S(N)(=O)c1nn(C(F)F)cc1F)CCC2` (single isomer, unassigned) [Example 724, (S) or (R)-1-(difluoromethyl)-4-fluoro-N′-((3-methyl-2-(2,2,2-trifluoroethyl)-6,7-dihydro-5H-cyclopenta[b]pyridin-4-yl)carbamoyl)-1H-pyrazole-3-sulfonimidamide], the IC50 (Homo sapiens, THP-1, Table B3, hTHP-1 assay, numeric values, read-out: IC50) is more than 30 µM.

On to `CC(=O)c1csc(S(N)(=O)=NC(=O)Nc2c3c(nc4c2CC[C@H]4C)CCC3)c1` (single isomer, unassigned) [Example 666, (S) or (R)-4-acetyl-N′-(((R)-3-methyl-1,2,3,5,6,7-hexahydrodicyclopenta[b,e]pyridin-8-yl)carbamoyl)thiophene-2-sulfonimidamide], for which, under “Table B3, hTHP-1 assay, class symbols, read-out: IC50”, the IC50 fell in the range of 5 to 30 µM.

Regarding `CCn1ccc(S(N)(=O)=NC(=O)Nc2c3c(nc4c2CC[C@H]4C)CCC3)n1` (single isomer, unassigned) [Compound 634a, (S) or (R)-1-Ethyl-N′-(((R)-3-methyl-1,2,3,5,6,7-hexahydrodicyclopenta [b,e]pyridin-8-yl)carbamoyl)-1H-pyrazole-3-sulfonimidamide], the IC50 (Table B2, class symbols, read-out: hTHP-1 IC50) lay in the range of 5 to 30 µM.

For `CC(C)(O)c1cc(C#N)cc(S(N)(=O)=NC(=O)Nc2c3c(nc4c2CCC4(C)C)CCC3)c1` (single isomer, unassigned) [Compound 674a, (S) or (R)-3-Cyano-N′-((3,3-methyl-1,2,3,5,6,7-hexahydrodicyclopenta [b,e]pyridin-8-yl)carbamoyl)-5-(2-hydroxypropan-2-yl)benzene-sulfonimidamide], the half-inhibitory concentration (IC50) under setting [3] is more than 30 µM.

For `CC(C)(O)c1ncc(S(N)(=O)=NC(=O)Nc2c3c(nc4c2CCC4C(=O)O)CCC3)s1` (centres unmarked) [Compound 703, 8-(3-(Amino(2-(2-hydroxypropan-2-yl)thiazol-5-yl)(oxo)-λ^6-sulfanylidene)ureido)-1,2,3,5,6,7-hexahydrodicyclopenta[b,e] pyridine-3-carboxylic acid], the 50% inhibitory concentration (IC50) under setting [2] is 5 to 30 µM.

Take `CC(C)(O)c1cc(F)c(S(N)(=O)=NC(=O)Nc2c3c(nc4c2CCC4(C)C)CCC3)s1` (single isomer, unassigned) [Compound 102a, (S) or (R)-N′-((3,3-dimethyl-1,2,3,5,6,7-hexahydro-dicyclopenta[b,e]pyridin-8-yl)carbamoyl)-3-fluoro-5-(2-hydroxy-propan-2-yl)thiophene-2-sulfonimidamide]: under setting [1], the IC50 lay within 1 to 5 µM.

As to `CCn1ccc([S@](N)(=O)=NC(=O)Nc2c3c(nc4c2CCC42CC2)CCC3)n1` [Compound 604b], the IC50 under setting [2] was 0.2 to 1 µM.

Consider `CC(C)(O)c1ncc(S(N)(=O)=NC(=O)Nc2c3c(nc4c2CCC42CC2)CCC3)s1` (single isomer, unassigned) [Compound 136a, (S) or (R)-2-(2-hydroxy-propan-2-yl)-N′-((1′,5′,6′,7′-tetrahydro-2′H-spiro[cyclopropane-1,3′-dicyclopenta[b,e]pyridin]-8′-yl)carbamoyl)thiazole-5-sulfonimidamide], for which, under setting [1], the concentration for half-maximal inhibition (IC50) was in the range of 1 to 5 µM.

Turning to `C[C@@H]1CCc2c1nc1c(c2NC(=O)N=[S@](N)(=O)c2cc([C@@H](C)O)cs2)CCC1` (single isomer, unassigned) [Example 661, (S)-4-((R) or (S)-1-hydroxyethyl)-N′-(((R)-3-methyl-1,2,3,5,6,7-hexahydrodicyclopenta[b,e]pyridin-8-yl)carbamoyl) thiophene-2-sulfonimidamide], the IC50 under setting [4] is 1 to 5 µM.

With `CC(C)n1nc(S(N)(=O)=NC(=O)Nc2c3c(nc4c2CCC42CC2)CCC3)cc1CO` (centres unmarked) [Example 595, 5-(Hydroxymethyl)-1-isopropyl-N′-((1′,5′,6′,7′-tetrahydro-2′H-spiro[cyclopropane-1,3′-dicyclopenta[b,e]pyridin]-8′-yl)carbamoyl)-1H-pyrazole-3-sulfonimidamide], under setting [4], the concentration for half-maximal inhibition (IC50) fell in the range of 1 to 5 µM.

Regarding `CC(C)(O)c1nc(CO)c(S(N)(=O)=NC(=O)Nc2c3c(nc4c2CCC4)CCC3)s1` (centres unmarked) [Compound 150, N′-((1,2,3,5,6,7-hexahydrodicyclopenta[b,e]pyridin-8-yl)carbamoyl)-4-(hydroxymethyl)-2-(2-hydroxypropan-2-yl)thiazole-3-sulfonimidamide], the IC50 (Homo sapiens, THP-1, Table B1, class symbols, read-out: Average IC50 of compounds in hTHP-1 assay: hTHP-1 IC50) lay in the range of 1 to 5 µM.

Regarding `CC(C)(O)c1csc(S(N)(=O)=NC(=O)Nc2cc(CC(F)(F)F)nc3c2CCC3)c1` (single isomer, unassigned) [Compound 607a, (S) or (R)-4-(2-Hydroxypropan-2-yl)-N′-((2-(2,2,2-trifluoroethyl)-6,7-dihydro-5H-cyclopenta[b]pyridin-4-yl)carbamoyl) thiophene-2-sulfonimidamide], the IC50 under setting [3] was more than 30 µM.

With `Cc1c(C(F)(F)F)nc2c(c1NC(=O)N=S(N)(=O)c1sc(C(C)(C)O)cc1F)CCC2` (centres unmarked) [Compound 632, 3-Fluoro-5-(2-hydroxypropan-2-yl)-N′-((3-methyl-2-(trifluoromethyl)-6,7-dihydro-5H-cyclopenta[b]pyridin-4-yl)carbamoyl)thiophene-2-sulfonimidamide], under setting [2], the IC50 was in the range of 0.2 to 1 µM.

Take `NS(=O)(=NC(=O)Nc1c2c(nc(C(F)(F)F)c1C1CC1)CCC2)c1nn(C(F)F)cc1F` (centres unmarked) [Compound 984b]: the half-maximal inhibitory concentration (IC50) (Table B3, hTHP-1 assay, class symbols, listed as Compound 984b, read-out: IC50) fell in the range of 0.04 to 0.2 µM.

For the compound `CC(C)(O)c1cc(C#N)cc(S(N)(=O)=NC(=O)Nc2c3c(nc4c2CCC4(C)C)CCC3)c1` (centres unmarked) [Compound 674, 3-Cyano-N′-((3,3-dimethyl-1,2,3,5,6,7-hexahydrodicyclopenta[b,e]pyridin-8-yl)carbamoyl)-5-(2-hydroxypropan-2-yl)benzenesulfonimidamide], under setting [2], the IC50 lay in the range of 1 to 5 µM.

Take `C[C@@H]1CCc2c1nc1c(c2NC(=O)N=S(N)(=O)c2cc(F)c(C(C)(C)O)s2)CCC1` (stereo partly drawn) [Compound 616, 4-Fluoro-5-(2-hydroxypropan-2-yl)-N′-(((R)-3-methyl-1,2,3,5,6,7-hexahydrodicyclopenta[b,e]pyridin-8-yl)carbamoyl)thiophene-2-sulfonimidamide]: the IC50 under setting [2] was 0.04 to 0.2 µM.

As for `CC(C)(CO)c1ncc(S(N)(=O)=NC(=O)Nc2c3c(nc4c2CCC4(C)C)CCC3)s1` (centres unmarked) [Compound 737], the IC50 under setting [2] was in the range of 0.2 to 1 µM.

As to `CCn1cc(F)c(S(N)(=O)=NC(=O)Nc2c3c(nc(C(F)(F)F)c2C2CC2)CCC3)n1` (single isomer, unassigned) [Example 773, (R) or (S)-N′-((3-cyclopropyl-2-(trifluoromethyl)-6,7-dihydro-5H-cyclopenta[b]pyridin-4-yl)carbamoyl)-1-ethyl-4-fluoro-1H-pyrazole-3-sulfonimidamide], for the setting “Table B4, class symbols, read-out: hTHP-1 IC50”, the IC50 is 0.04 to 0.2 µM.

`CC1CCc2c1nc1c(c2NC(=O)N=S(N)(=O)c2ncc(C(C)(C)O)s2)CCC1` (single isomer, unassigned) [Compound 140b, (S,R/S) or (R,R/S)-5-(2-hydroxypropan-2-yl)-N′-((3-methyl-1,2,3,5,6,7-hexa-hydrodicyclo-penta[b,e]pyridin-8-yl)carbamoyl)thiazole-2-sulfonimidamide]: under setting [1], the IC50 was 5 to 30 µM.

In the case of `CC1CCc2c1nc1c(c2NC(=O)N=S(N)(=O)c2cnc(C(O)CO)s2)CCC1` (centres unmarked) [Example 752, 2-(1,2-Dihydroxyethyl)-N′-((3-methyl-1,2,3,5,6,7-hexahydrodicyclopenta[b,e]pyridin-8-yl)carbamoyl) thiazole-5-sulfonimidamide], the half-inhibitory concentration (IC50) (Homo sapiens, THP-1, Table B4, class symbols, read-out: hTHP-1 IC50) lay in the range of 1 to 5 µM.

For `CC(C)n1nc(S(N)(=O)=NC(=O)Nc2c3c(nc4c2CCC4(C)C)CCC3)cc1C(C)(C)O` (single isomer, unassigned) [Compound 615a, (S) or (R)-N′-((3,3-dimethyl-1,2,3,5,6,7-hexahydrodicyclopenta [b,e]pyridin-8-yl)carbamoyl)-5-(2-hydroxypropan-2-yl)-1-isopropyl-1H-pyrazole-3-sulfonimidamide], the IC50 under setting [3] was more than 30 µM.

For the compound `CC(C)(O)c1cc(F)c([S@@](N)(=O)=NC(=O)Nc2cc(CC(F)(F)F)nc3c2CCC3)s1` [Compound 602a], under setting [3], the IC50 was more than 30 µM.
